Measurements published in patent US8232283B2, “Raf inhibitors” (Forma Therapeutics, Inc., priority 2008, dated 2012).

Legend:
A-431 [B-Raf wildtype] = assay: Anti-proliferative activity, SRB assay, 72 hours; assay type: cell-based; conditions: Homo sapiens, read-out: CELLULAR IC50 [μM] A-431 [B-Raf wildtype]
Method: (§1) Cells were exposed to the test compounds at various concentrations appropriate to determine an IC50, for 72 hours, and cell proliferation was measured using the SRB assay according to Shekan et al (J Natl Cancer Inst (1990) 82, 1107-112) in order to estimate the IC50 values shown in Table 3.
(§2) Briefly, cells were plated in 96 well dishes 24 hours prior to compound addition at the densities specified in Table 11.1.
(§3) The assay was terminated with the addition of ice cold 10% TCA after growth medium has been removed and the plates were incubated over night at 4° C. The plates were then washed 5 times with water and 100 μl of a Sulforhodamine B solution ([…]) was added to each well. The plates were then incubated for 10 minutes at room temperature before removal of unbound dye by washing with 1% acetic acid. The bound dye was solubilized with 10 mM Trizma base and the absorbance read at OD520.
(§4) Inhibitory activity of the compounds was calculated as % inhibition of cell proliferation compared to cells treated with the solvent (DMSO).

C-Raf = biological target: T1, C-Raf (Homo sapiens, UniProt P04049); assay: Biochemical inhibition, standard selectivity panel (Proteros); parameters: dose or concentration left out as unconfirmed
T1 construct: purchased Proteros biostructures GmbH (selectivity panel service)
Method: (§5) For example, selected compound of the present invention were tested in a standard selectivity panel including c-Raf, p38, and 22 other kinases (Proteros biostructures GmbH, Martinsried/Munich, Germany), under conditions of non-disclosure, non-dissemination and non-use.
(§6) In brief, selected compounds of the present invention were tested […] in triplicates against c-Raf, p38 as well as against Ab1, Akt1, Aur A, c-Kit, c-Raf, Cdk1/CycB, Chk1, FGFR3, Flt3, Fyn, IGF1-R, INSR, Lyn, MAPK-ERK1, PAK-4, PKCalpha, Plk1, Ret, ROCK2, RSK 1, c-Src, TIE2, and VEGF-R2.

p38 = biological target: T2, p38 (Homo sapiens, UniProt Q16539); assay: as above; parameters: dose or concentration left out as unconfirmed
T2 construct: purchased Proteros biostructures GmbH (selectivity panel service)
Method: as §5, §6

[1] = tested on: HT-29 [B-Raf V600E mutant]; assay: Anti-proliferative activity, SRB assay, 72 hours; assay type: cell-based; conditions: Homo sapiens, read-out: CELLULAR IC50 [μM] HT-29 [B-Raf V600E mutant]
Method: We observed the surprising finding that compounds of the invention were useful in inhibiting proliferation of HT-29 tumor cells (see Table 3).
as §1, §2, §3, §4

T1 sequence (P04049 whole entry): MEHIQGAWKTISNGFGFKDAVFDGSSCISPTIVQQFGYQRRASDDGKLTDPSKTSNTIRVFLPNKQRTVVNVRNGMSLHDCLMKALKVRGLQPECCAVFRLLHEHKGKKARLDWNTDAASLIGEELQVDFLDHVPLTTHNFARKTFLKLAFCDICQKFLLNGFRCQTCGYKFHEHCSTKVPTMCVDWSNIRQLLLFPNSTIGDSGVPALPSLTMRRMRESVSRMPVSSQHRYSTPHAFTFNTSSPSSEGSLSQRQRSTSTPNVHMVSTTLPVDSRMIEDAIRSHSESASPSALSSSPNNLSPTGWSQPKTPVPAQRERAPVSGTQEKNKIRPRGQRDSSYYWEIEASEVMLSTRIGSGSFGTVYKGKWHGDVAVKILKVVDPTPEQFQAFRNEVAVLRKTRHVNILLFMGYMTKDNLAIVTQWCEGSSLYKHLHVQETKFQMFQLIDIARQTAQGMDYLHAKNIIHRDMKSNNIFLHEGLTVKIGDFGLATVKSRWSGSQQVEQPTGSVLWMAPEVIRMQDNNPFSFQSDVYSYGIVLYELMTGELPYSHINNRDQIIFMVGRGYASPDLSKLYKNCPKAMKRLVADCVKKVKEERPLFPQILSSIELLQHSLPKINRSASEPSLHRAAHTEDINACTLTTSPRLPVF
T2 sequence (Q16539 whole entry): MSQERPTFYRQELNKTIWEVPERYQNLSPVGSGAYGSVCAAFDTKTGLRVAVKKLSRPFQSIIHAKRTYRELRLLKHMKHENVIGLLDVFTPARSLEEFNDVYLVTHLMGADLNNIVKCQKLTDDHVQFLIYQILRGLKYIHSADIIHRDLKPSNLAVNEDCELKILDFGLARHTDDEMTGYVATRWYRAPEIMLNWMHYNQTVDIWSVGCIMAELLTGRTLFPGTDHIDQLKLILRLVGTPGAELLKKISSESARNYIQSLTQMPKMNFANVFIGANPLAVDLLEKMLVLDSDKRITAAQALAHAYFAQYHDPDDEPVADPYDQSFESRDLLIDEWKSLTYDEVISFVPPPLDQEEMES

SMILES: COc1ccc(NC(=O)Nc2ccc(Cl)c(-c3cc4cnc(NCCN(C)C)nc4n(OC)c3=O)c2)cc1Cl [Compound 4, 1-{4-Chloro-3-[2-(2-dimethylamino-ethylamino)-8-methoxy-7-oxo-7,8-dihydro-pyrido[2,3-d]pyrimidin-6-yl]-phenyl}-3-(3-chloro-4-methoxy-phenyl)-urea]
- IC50 (A-431 [B-Raf wildtype]): > 10 µM
- inhibition (C-Raf): > 70%
- inhibition (p38): > 70%
- IC50 [1]: < 10 µM

SMILES: CCN(CC)c1cc(C(=O)Nc2ccc(Cl)c(-c3cc4cnc(NCCN(C)C)nc4n(OC)c3=O)c2)cc(Cl)n1 [Compound 8, 2-Chloro-N-(4-chloro-3-(2-(2-(dimethylamino)ethylamino)-8-methoxy-7-oxo-7,8-dihydropyrido[2,3-d]pyrimidin-6-yl)phenyl)-6-diethylamino-isonicotinamide]
- IC50 (A-431 [B-Raf wildtype]): < 10 µM
- inhibition (C-Raf): > 70%
- inhibition (p38): > 70%
- IC50 [1]: < 5 µM

SMILES: COn1c(=O)c(-c2cc(NC(=O)Nc3ccc(Oc4ccccc4)cc3)ccc2Cl)cc2cnc(NCCN(C)C)nc21 [Compound 45, 1-{4-Chloro-3-[2-(2-dimethylamino-ethylamino)-8-methoxy-7-oxo-7,8-dihydro-pyrido[2,3-d]pyrimidin-6-yl]-phenyl}-3-(4-phenoxy-phenyl)-urea]
- IC50 (A-431 [B-Raf wildtype]): < 10 µM
- IC50 [1]: < 5 µM

SMILES: COn1c(=O)c(-c2cc(NC(=O)Nc3ccc(Cl)cc3)ccc2Cl)cc2cnc(NCCN(C)C)nc21 [Compound 46, 1-{4-Chloro-3-[2-(2-dimethylamino-ethylamino)-8-methoxy-7-oxo-7,8-dihydro-pyrido[2,3-d]pyrimidin-6-yl]-phenyl}-3-(4-chloro-phenyl)-urea]
- IC50 (A-431 [B-Raf wildtype]): > 10 µM
- IC50 [1]: < 5 µM

SMILES: COn1c(=O)c(-c2cc(NC(=O)Nc3cccc(C(F)(F)F)c3F)ccc2Cl)cc2cnc(NCCN(C)C)nc21 [Compound 48, 1-{4-Chloro-3-[2-(2-dimethylamino-ethylamino)8-methoxy-7-oxo-7,8-dihydro-pyrido[2,3-d]pyrimidin-6-yl]-phenyl}-3-(2-fluoro-3-trifluoromethyl-phenyl)-urea]
- IC50 (A-431 [B-Raf wildtype]): > 10 µM
- IC50 [1]: < 5 µM

SMILES: COn1c(=O)c(-c2cc(NC(=O)Nc3cc(C(F)(F)F)ccc3F)ccc2Cl)cc2cnc(NCCN(C)C)nc21 [Compound 49, 1-{4-Chloro-3-[2-(2-dimethylamino-ethylamino)-8-methoxy-7-oxo-7,8-dihydro-pyrido[2,3-d]pynmidin-6-yl]-phenyl}-3-(2-fluoro-5-trifluoromethyl-phenyl)-urea]
- IC50 (A-431 [B-Raf wildtype]): > 10 µM
- IC50 [1]: < 5 µM

SMILES: COc1cc(C(F)(F)F)ccc1C(=O)Nc1ccc(-c2cc3cnc(NCCN(C)C)nc3n(OC)c2=O)c(Cl)c1 [Compound 51, N-{3-Chloro-4-[2-(2-dimethylamino-ethylamino)-8-methoxy-7-oxo-7,8-dihydro-pyrido[2,3-d]pyrimidin-6-yl]-phenyl}-2-methoxy-4-trifluoromethyl-benzamide]
- IC50 (A-431 [B-Raf wildtype]): < 10 µM
- IC50 [1]: < 5 µM

SMILES: COn1c(=O)c(-c2ccc(NC(=O)c3ccc(Cl)c(OC(F)(F)F)c3)cc2Cl)cc2cnc(NCCN(C)C)nc21 [Compound 52, 4-Chloro-N-{3-chloro-4-[2-(2-dimethylamino-ethylamino)-8-methoxy-7-oxo-7,8-dihydro-pyrido[2,3-d]pyrimidin-6-yl]-phenyl}-3-trifluoromethoxy-benzamide]
- IC50 (A-431 [B-Raf wildtype]): < 10 µM
- IC50 [1]: < 5 µM

SMILES: COn1c(=O)c(-c2ccc(NC(=O)c3ccc(CN4CCN(C)CC4)cc3)cc2Cl)cc2cnc(NCCN(C)C)nc21 [Compound 53, N-{3-Chloro-4-[2-(2-dimethylamino-ethylamino)-8-methoxy-7-oxo-7,8-dihydro-pyrido[2,3-d]pyrimidin-6-yl]-phenyl}-4-(4-methyl-piperazin-1-ylmethyl)-benzamide]
- IC50 (A-431 [B-Raf wildtype]): > 10 µM
- IC50 [1]: > 10 µM

SMILES: COn1c(=O)c(-c2ccc(NC(=O)c3ccnc(N4CCOCC4)c3)cc2Cl)cc2cnc(NCCN(C)C)nc21 [Compound 54, N-{3-Chloro-4-[2-(2-dimethylamino-ethylamino)-8-methoxy-7-oxo-7,8-dihydro-pyrido[2,3-d]pymidin-6-yl]-phenyl}-2-morpholin-4-yl-isonicotinamide]
- IC50 (A-431 [B-Raf wildtype]): > 10 µM
- IC50 [1]: > 10 µM

SMILES: COn1c(=O)c(-c2ccc(NC(=O)c3ccc(OCc4cccc(F)c4)c(Cl)c3)cc2Cl)cc2cnc(NCCN(C)C)nc21 [Compound 55, 3-Chloro-N-{3-chloro-4-[2-(2-dimethylamino-ethylamino)-8-methoxy-7-oxo-7,8-dihydro-pyrido[2,3-d]pyrimidin-6-yl]-phenyl}-4-(3-fluoro-benzyloxy)-benzamide]
- IC50 (A-431 [B-Raf wildtype]): < 10 µM
- IC50 [1]: < 5 µM

SMILES: COn1c(=O)c(-c2ccc(NC(=O)c3cc(C(C)(C)C)nn3-c3ccccc3)cc2Cl)cc2cnc(NCCN(C)C)nc21 [Compound 56, 5-tert-Butyl-2-phenyl-2H-pyrazole-3-carboxylic acid {3-chloro-4-[2-(2-dimethylamino-ethylamino)-8-methoxy-7-oxo-7,8-dihydro-pyrido[2,3-d]pyrimidin-6-yl]-phenyl}-amide]
- IC50 (A-431 [B-Raf wildtype]): < 10 µM
- IC50 [1]: < 5 µM

SMILES: COn1c(=O)c(-c2ccc(NC(=O)Cc3ccc(Cl)c(C(F)(F)F)c3)cc2Cl)cc2cnc(NCCN(C)C)nc21 [Compound 57, N-{3-Chloro-4-[2-(2-dimethylamino-ethylamino)-8-methoxy-7-oxo-7,8-dihydro-pyrido[2,3-d]pyrimidin-6-yl]-phenyl}-2-(4-chloro-3-trifluoromethyl-phenyl)-acetamide]
- IC50 (A-431 [B-Raf wildtype]): < 10 µM
- IC50 [1]: < 10 µM

SMILES: COn1c(=O)c(-c2cc(NC(=O)c3cc(Cl)nc(N4CCCC4)c3)ccc2Cl)cc2cnc(NCCN(C)C)nc21 [Compound 58, 2-Chloro-N-(4-chloro-3-(2-(2-(dimethylamino)ethylamino)-8-methoxy-7-oxo-7,8-dihydropyrido[2,3-d]pyrimidin-6-yl)phenyl)-6-pyrrolidin-1-yl-isonicotinamide]
- IC50 (A-431 [B-Raf wildtype]): < 10 µM
- IC50 [1]: < 5 µM

SMILES: COn1c(=O)c(-c2cc(NC(=O)c3cc(Cl)nc(N(C)C)c3)ccc2Cl)cc2cnc(NCCN(C)C)nc21 [Compound 59, 2-Chloro-N-(4-chloro-3-(2-(2-(dimethylamino)ethylamino)-8-methoxy-7-oxo-7,8-dihydropyrido[2,3-d]pyrimidin-6-yl)phenyl)-6-dimethylamino-isonicotinamide]
- IC50 (A-431 [B-Raf wildtype]): > 10 µM
- IC50 [1]: < 5 µM

SMILES: COn1c(=O)c(-c2cc(NC(=O)c3cc(Cl)nc(N4CCCCC4)c3)ccc2Cl)cc2cnc(NCCN(C)C)nc21 [Compound 60, 2-Chloro-N-(4-chloro-3-(2-(2-(dimethylamino)ethylamino)-8-methoxy-7-oxo-7,8-dihydropyrido[2,3-d]pyrimidin-6-yl)phenyl)-6-pyperidin-1-yl-isonicotinamide]
- IC50 (A-431 [B-Raf wildtype]): < 10 µM
- IC50 [1]: < 5 µM

SMILES: COn1c(=O)c(-c2cc(NC(=O)c3cc(Cl)nc(N4CCN(C)CC4)c3)ccc2Cl)cc2cnc(NCCN(C)C)nc21 [Compound 62, 2-Chloro-N-(4-chloro-3-(2-(2-(dimethylamino)ethylamino)-8-methoxy-7-oxo-7,8-dihydropyrido[2,3-d]pyrimidin-6-yl)phenyl)-6-(4-methyl-piperazin-1-yl)-isonicotinamide]
- IC50 (A-431 [B-Raf wildtype]): > 10 µM
- IC50 [1]: < 5 µM

SMILES: CCNc1cc(C(=O)Nc2ccc(Cl)c(-c3cc4cnc(NCCN(C)C)nc4n(OC)c3=O)c2)cc(Cl)n1 [Compound 63, 2-Chloro-N-(4-chloro-3-(2-(2-(dimethylamino)ethylamino)-8-methoxy-7-oxo-7,8-dihydropyrido[2,3-d]pyrimidin-6-yl)phenyl)-6-ethylamino-isonicotinamide]
- IC50 (A-431 [B-Raf wildtype]): > 10 µM
- IC50 [1]: < 5 µM

SMILES: COn1c(=O)c(-c2cc(NC(=O)c3cc(Cl)nc(NCCN(C)C)c3)ccc2Cl)cc2cnc(NCCN(C)C)nc21 [Compound 65, 2-Chloro-N-(4-chloro-3-(2-(2-(dimethylamino)ethylamino)-8-methoxy-7-oxo-7,8-dihydropyrido[2,3-d]pyrirnidin-6-yl)phenyl)-6-(2-dimethylaminoethylamino)-isonicotinamide]
- IC50 (A-431 [B-Raf wildtype]): > 10 µM
- IC50 [1]: < 10 µM

SMILES: COn1c(=O)c(-c2cc(NC(=O)c3cc(Cl)nc(NC4CCN(C)CC4)c3)ccc2Cl)cc2cnc(NCCN(C)C)nc21 [Compound 66]
- IC50 (A-431 [B-Raf wildtype]): > 10 µM
- IC50 [1]: < 10 µM

SMILES: COn1c(=O)c(-c2cc(NC(=O)c3cc(Cl)nc(NCc4ccc(N5CCN(C)CC5)cc4)c3)ccc2Cl)cc2cnc(NCCN(C)C)nc21 [Compound 67, 2-Chloro-N-(4-chloro-3-(2-(2-(dimethylamino)ethylamino)-8-methoxy-7-oxo-7,8-dihydropyrido[2,3-d]pyrimidin-6-yl)phenyl)-6-(4-(4-methylpiperazin-1-yl)-benzylamino)-isonicotinamide]
- IC50 (A-431 [B-Raf wildtype]): < 10 µM
- IC50 [1]: < 5 µM
